Experimental data: PMC7168207, “Dibasic Derivatives of Phenylcarbamic Acid as Prospective Antibacterial Agents Interacting with Cytoplasmic Membrane” (Antibiotics, 2020)
Where “and” joins values, the source holds several entries; their conditions need not be identical. Equal values may be shown once. Read-outs that look alike come from different tables or passages of the source.

How the values were obtained:
[1] = tested on: S. aureus ATCC 29213; experiment: MIC, broth microdilution; assay type: cell-based, Staphylococcus aureus
Protocol: (§1) The modified broth microdilution method was used for in vitro evaluation of minimum inhibitory concentration. A small portion of bacterial colony cultivated overnight onto nutrient agar (Oxoid, Basingstoke, UK) with 5% bovine blood was suspended in sterile phosphate-buffered saline to get cell density 0.5 McFarland. This inoculum was diluted to reach the final concentration of bacterial cells 5 × 10^5 CFU/mL in the wells. […] For plates with staphylococci, cation adjusted Mueller–Hinton (CaMH) broth (Oxoid) was used; enterococci were cultivated in brain heart infusion (BHI, Oxoid). […] A drug-free control and a sterility control were included. Inoculated plates were incubated in aerobic atmosphere at 37 °C overnight. […] After evaluation of MICs, 10 µL of aliquots from the wells were put onto Mueller–Hinton agar. The agar plates were cultivated at 37 °C for 24 h. The minimum bactericidal concentration (MBC) was defined as the lowest concentration of the compound that killed 99.9% of the bacteria compared to the starting inoculum.

[2] = tested on: methicillin-resistant S. aureus 63718; experiment: MIC, broth microdilution; assay type: cell-based, Staphylococcus aureus; settings: MRSA1 = S. aureus 63718; for MIC: read-out: MICs
Protocol: as §1

[3] = tested on: methicillin-resistant S. aureus SA 3202; experiment: MIC, broth microdilution; assay type: cell-based, Staphylococcus aureus; settings: MRSA3 = SA 3202; for MIC: read-out: MICs
Protocol: as §1

[4] = tested on: methicillin-resistant S. aureus SA 630; experiment: MIC, broth microdilution; assay type: cell-based, Staphylococcus aureus; settings: MRSA2 = SA 630; for MIC: read-out: MICs
Protocol: as §1

[5] = tested on: E. faecalis ATCC 29212; experiment: MIC, broth microdilution; assay type: cell-based, Enterococcus faecalis; settings: EF = E. faecalis ATCC 29213
Protocol: as §1

[6] = tested on: vancomycin-resistant enterococci VRE 342B; experiment: MIC, broth microdilution; assay type: cell-based, Enterococcus faecalis; settings: VRE1 = VRE 342B; for MIC: read-out: MICs
Protocol: as §1

[7] = tested on: vancomycin-resistant enterococci VRE 368; experiment: MIC, broth microdilution; assay type: cell-based, Enterococcus faecalis; settings: VRE2 = VRE 368; for MIC: read-out: MICs
Protocol: as §1

[8] = tested on: vancomycin-resistant enterococci VRE 725B; experiment: MIC, broth microdilution; assay type: cell-based, Enterococcus faecalis; settings: VRE3 = VRE 725B; for MIC: read-out: MICs
Protocol: as §1

[9] = tested on: Candida albicans CCM 8261; experiment: minimum fungistatic concentration, RPMI 1640; assay type: cell-based; settings: CCM8261, CA = C albicans CCM 8261, 48 h
Protocol: Fungistatic activity was tested similarly in RPMI (Roswell Park Memorial Institute) 1640 medium (Sigma, Pool, UK). […] A growth control and sterility control were included. The colonies of C. albicans grown overnight on Sabourad dextrose agar were suspended in sterile phosphate-buffered saline (PBS) to get cell density 0.5 McFarland. The inoculum was diluted to get a final concentration of 10^3 CFU/mL in the wells. Plates were inoculated and cultivated at 37 °C for 48 h. The minimum fungistatic concentration was visually evaluated as the lowest concentration of a tested compound, which inhibited 100% of yeast growth. 5-Flucytosin (Sigma, UK) was used as a positive control.

[10] = tested on: human monocytic leukemia THP-1 cells; experiment: in vitro antiproliferative assay (WST-1); assay type: cell-based; settings: THP-1 cells, WST-1, 24 h, read-out: Tox IC50
Protocol: The preliminary in vitro screening of the antiproliferative effect of the investigated compounds was performed using a Water Soluble Tetrazolium salts-1 (WST-1) assay kit and a human monocytic leukemia THP-1 cell line by means of the method described recently. The principle of the WST-1 assay kit is the […] mitochondrial dehydrogenases by antiproliferative compounds. The activity of this enzyme directly correlates with the number of metabolically active cells in the culture. The antiproliferative effect was evaluated as the IC50 value (the concentration of the compound causing 50% inhibition of cell proliferation).
Human monocytic leukemia THP-1 cells were used for in vitro antiproliferative assay. Cells were obtained from the European Collection of Cell Cultures (ECACC, Salisbury, UK) and routinely cultured in RPMI (Roswell Park Memorial Institute) 1640 medium supplemented with 10% fetal bovine serum, 2% L-glutamine, 1% penicillin, and streptomycin at 37 °C with 5% CO2. Cells were passaged at approximately one-week intervals. The antiproliferative activity of the compounds was determined using a Water Soluble Tetrazolium Salts-1 (WST-1, 2-(4-iodophenyl)-3-(4-nitrophenyl)-5-(2,4-disulfophenyl)-2H-tetrazolium) assay kit (Roche Diagnostics, Mannheim, Germany) according to the manufacturer’s instructions. The tested compounds were dissolved in DMSO and added in various compound concentrations to the cell suspension in the culture RPMI 1640 medium. The maximum concentration of DMSO in the assays never exceeded 0.1%. Subsequently, the cells were incubated at 37 °C with 5% CO2 for 24 h. For WST-1 assays, cells were seeded into 96-well plates (5 × 10^4 cells/well in 100 μL culture medium) in triplicate in serum-free RPMI 1640 medium, and measurements were taken 24 h after the treatment with the compounds. The median inhibition concentration values, IC50, were deduced through the production of a dose-response curve. All data were evaluated using GraphPad Prism 5.00 software (GraphPad Software, San Diego, CA, USA).

[11] = set-up: method as in PMID 30274224; settings: isocratic RP-HPLC, extrapolated lipophilicity index; cited from earlier work
[12] = set-up: method as in PMID 30274224; settings: cited from earlier work
[13] = set-up: method as in PMID 30274224; settings: methanolic solutions, c = 8.0 × 10^−5 M; cited from earlier work
[14] = tested on: S. aureus ATCC 29213 biofilm; experiment: biofilm inhibition assay (crystal violet); assay type: cell-based, Staphylococcus aureus; settings: ≥80% inhibition of biofilm formation, 48 h
Protocol: (§2) The ability of compounds 1f, 1g, and 1h to inhibit biofilm growth and destroy the matured biofilm of S. aureus ATCC 29213 was investigated. The inhibitory activity was studied by the method with crystal violet. The activity to disrupt matured biofilm was evaluated as a decrease of metabolic activity using the MTT assay.
The plates were inoculated by inoculum of S. aureus ATCC 29213 grown in TSB + 2% glucose to exponential phase. Before the inoculation of the plate, the original inoculum was diluted to 1 McFarland and then 1:100 in fresh TSB + 2% glucose, to reach the final concentrations in the wells of […]. […] The plates were incubated at 37 °C for 48 h. After incubation, the contents of the wells were removed, and the plates were washed three times by sterile PBS. After drying, 125 μL of 0.5% crystal violet was added to each well and the plates were stained at room temperature for 20 min. Then the dye was removed, and the plates were washed three times by sterile PBS. The colored biofilm was detached from the wells using 33% solution of acetic acid. The absorbance at 595 nm was measured. As a blank, a non-inoculated plate treated in the same way was used. […] The minimum biofilm inhibitory concentration was the lowest concentration of the compounds, which inhibited the growth of 80% bacteria compared to the growth control. The experiment was made in duplicate and repeated at least three times.

[15] = tested on: S. aureus ATCC 29213 biofilm; experiment: biofilm susceptibility / eradication of preformed biofilm (MTT); assay type: cell-based, Staphylococcus aureus; settings: 80% reduction of metabolic activity of preformed biofilm, 24 h
Protocol: as §2
Biofilms were grown as described above but without the presence of the compounds. After 48 h of incubation at 37 °C, the contents of the wells were removed, and the plates were washed three times by sterile PBS. After washing, 100 µL of tested compounds in CaMH were added to the wells. […] A growth control containing 2.5% of DMSO in CaMH was included. The plates were incubated at 37 °C for 24 h, then the solutions of compounds were removed, and the plates were gently washed three times by sterile PBS. Bacterial viability was analyzed using 100 µL of 0.05 mg/mL MTT (3-(4,5-dimethylthiazol-2-yl)- 2,5-diphenyltetrazolium bromide) in PBS in each well. The plates with MTT were incubated at 37 °C for 1–2 h in darkness, until the blue formazan crystals appeared. MTT solution was removed and the plates were washed once by PBS. Crystals of formazan were dissolved using 17% sodium dodecysulphate in 40% dimethylformamid. The absorbance at 570 nm was measured and the percentage of eradication was counted according to the equation (3) % of eradication = 100 − OD570S/OD570C × 100 where OD570S is the absorbance of the sample at 570 nm and OD570C is the absorbance of the growth control at 570 nm. The minimum biofilm eradication concentration was the lowest concentration of the compound, which reduced the metabolic activity of the biofilm by 80% compared to the growth control. The experiment was made in duplicate and repeated at least three times.

[16] = Staphylococcus aureus, ATCC29213, SA = S. aureus ATCC 29213, read-out: MICs
[17] = Enterococcus faecalis, ATCC 29212 / ATCC 29213

Row | SMILES | MIC [1, 16] | MIC ([2]; Staphylococcus aureus) | MIC ([3]; Staphylococcus aureus) | MIC ([4]; Staphylococcus aureus) | MIC [5, 17] | MIC ([6]; Enterococcus) | MIC ([7]; Enterococcus) | MIC ([8]; Enterococcus) | MIC [9] | IC50 ([10]; Homo sapiens, THP-1, 24 h) [µM] | log kw [11] | γ (surface tension, relative surface activity) [12] [N/m] | log ε2 (Ch-T) [13] | IC50 [10] [µM] | further results
1 | CCCCOc1cccc(NC(=O)OC(CN(CCC)CCC)CN2CCCCCC2)c1 (stereo not shown) [1m] | 128 µg/mL and 245 µM | 32 µg/mL and 61.5 µM | 64 µg/mL and 122 µM | 64 µg/mL and 122 µM | 32 µg/mL and 61.5 µM | 32 µg/mL and 61.5 µM | 64 µg/mL and 122 µM | 16 µg/mL and 30.7 µM | > 128 µg/mL and > 245 µM | 4.9 ± 0.19 | 4.7099 | 0.06298 | 4.09 |  | 
2 | CCCCCOc1cccc(NC(=O)OC(CN(CCC)CCC)CN2CCCCCC2)c1 (stereo not shown) [1n] | 128 µg/mL and 239 µM | 64 µg/mL and 119 µM | 256 µg/mL and 478 µM | 128 µg/mL and 239 µM | 16 µg/mL and 29.9 µM | 32 µg/mL and 59.9 µM | 64 µg/mL and 119 µM | 16 µg/mL and 29.9 µM | > 128 µg/mL and > 239 µM | 4.99 ± 0.99 | 5.2087 | 0.06154 | 4.18 |  | 
3 | CCCCCCOc1cccc(NC(=O)OC(CN(CCC)CCC)CN2CCCCCC2)c1 (stereo not shown) [1o] | > 256 µg/mL and > 466 µM | 128 µg/mL and 233 µM | > 256 µg/mL and > 466 µM | > 256 µg/mL and > 466 µM | 16 µg/mL and 29.2 µM | 32 µg/mL and 58.3 µM | 256 µg/mL and 466 µM | 8 µg/mL and 14.6 µM | > 128 µg/mL and > 233 µM | < 6.5 | 5.6569 | 0.05925 | 4.01 | 4.71 ± 0.07 | 
4 | CCCCCCCOc1cccc(NC(=O)OC(CN(CCC)CCC)CN2CCCCCC2)c1 (stereo not shown) [1p] | > 256 µg/mL and > 455 µM | 256 µg/mL and 455 µM | > 256 µg/mL and > 455 µM | > 256 µg/mL and > 455 µM | 8 µg/mL and 14.2 µM | 64 µg/mL and 113 µM | 256 µg/mL and 455 µM | 16 µg/mL and 28.4 µM | > 128 µg/mL and > 227 µM | < 6.5 | 6.1749 | 0.05692 | 4.20 | 6.32 ± 0.58 | 
5 | CCCCCCCCCCCCOS(=O)(=O)[O-].[Na+] [SDS, sodium dodecyl sulfate, reference compound] |  |  |  |  |  |  |  |  |  |  |  |  |  |  | MICs ([1]; SA = S. aureus ATCC 29213): 128 µg/mL; MIC ([1]; SA = S. aureus ATCC 29213, read-out: MICs): 443 µM; MIC ([1]; Table 7, planktonic cells of S. aureus ATCC 29213): 128 µg/mL; MICs [2]: 128 µg/mL; MIC [2]: 443 µM; MICs [3]: 64 µg/mL; MIC [3]: 222 µM; MICs [4]: 64 µg/mL; MIC [4]: 222 µM; MIC [5]: 443 µM; MICs [5]: 128 µg/mL; MICs [6]: 256 µg/mL; MIC [6]: 887 µM; MICs [7]: 128 µg/mL; MIC [7]: 443 µM; MICs [8]: 128 µg/mL; MIC [8]: 443 µM; MBIC80 (minimum biofilm inhibitory concentration) [14]: 32 µg/mL; MBEC80 (minimum biofilm eradication concentration) [15]: 128 µg/mL
